The source of these data is US5840910A, “Pyridine derivatives having anti-ulcerative activity” (Esai Co., Ltd., priority 1986, dated 1998).

One data set addresses T1, H^+ -K^+ ATPase (Sus scrofa, UniProt P19156).
T1 construct: Prepared from the fundic-glands of a fresh mucous membrane of a pig stomach; from tissue; host or cells: pig stomach, fundic glands of fresh mucous membrane (modified method of Saccomani et al., 1977)
As to the kind of experiment: Inhibition against the activity of H^+ -K^+ ATPase. The format is biochemical, pig. Particulars: for IC50: 40 mM Tris-HCl pH 7.40, 37° C., 30 minutes incubation. How it is done: Prepared from the fundic-glands of a fresh mucous membrane of a pig stomach according to a modified method of Saccomani al. (see Biochem. and Biophys. Acta, 464; 313 (1977)). The compound of the present invention was incubated at various concentration in a 40 mM Tris-HCl buffer solution having a pH of 7.40 together with H^+ -K^+ ATPase and 10 μg/ml of a protein at 37° C. for 30 minutes, followed by the addition of 15 mM KCl. After 10 minutes, the ATPase reaction was initiated by the addition of 3 mM of MgCl2 and ATP. After 10 minutes, the amount of the released inorganic phosphoric acid was determined according to the method of Yoda and Hokin (see Biochem. Biophys. Res. Com., 40, 880 (1970)). The test compound was used as a solution in methanol. The inhibitory effect was determined by subtracting the amount of the released inorganic acid observed with respect to the case wherein a solution of a test compound was added from that with respect to the control wherein only a solvent was added to determine a difference and dividing this difference by the latter amount and shown by percentage.

Data set [1] is described as follows: Toxicological influence, oral, one week, rats. Particulars: rats (printed rate), 50 mg/kg per day for one week. The format is in vivo.
Data set [2] in a line: Toxicological influence, oral, one week, beagle dogs. The data set is classed as in vivo. Particulars: 10 mg/kg per day for one week.
Data set [3] deals with histamine-stimulated gastric acid secretion. Briefly: Inhibitory effect on histamine-stimulated gastric acid secretion of chronic gastric fistula dogs. The data set is classed as in vivo, dog. To be noted: for ED50: Canis lupus familiaris, 1 h, intraduodenal, histamine-stimulated, read-out: ID 50, calculated from the dose-inhibition curve. The protocol:
Chronic gastric fistula dogs were used. Gastric acid secretion of each dog was stimulated by infusing 100 micron grams per kg per hour of histamine. After one hour of histamine infusion, each of the test compounds was administered intraduodenally to each dog, and after one hour of administration, the amount of gastric acid secretion of each test dog was determined. Results wore compared with the control group to which no test compound had been administered and are expressed in terms of percent inhibition.

Data set [4] concerns pentagastrin-stimulated gastric acid secretion. As to the kind of experiment: Pentagastrin-stimulated gastric acid secretion and its recovery in chronic gastric fistula dogs. The format is in vivo, dog. Particulars: for Time required for the acid secretion to recover: 4 mg per kg intraduodenal; for Gastric acid secretion, percent of the control response, 1 hr: 1 hr after 4 mg per kg intraduodenal; for Gastric acid secretion, percent of the control response, 24 hr: 24 hr after 4 mg per kg intraduodenal; for Gastric acid secretion, percent of the control response, 48 hr: 48 hr after 4 mg per kg intraduodenal; for Inhibition of pentagastrin-stimulated gastric acid secretion (in words): within one hour from intraduodenal administration, 4 mg per kg. The protocol: Chronic gastric fistula dogs were used. The test compound was intraduodenally administered to each dog in an amount of 4 mg per kg. In 1, 24, 48 and 72 hours, respectively, from the time of administration, pentagastrin (6 micron grams per kg) was injected intramuscularly into the dog. Gastric acid secretion, determined and recovery thereof, was determined in terms of percent of the control response.

Structures are written as SMILES. Entries after “also recorded” stand apart in the source; their conditions may differ. Structures can show the parent of a compound that is named as a salt.

Usually IC50 stands for the concentration at which inhibition is half-maximal. High values mean lower potency, low ones higher potency.

T1 sequence (P19156 2-1034 limits assumed): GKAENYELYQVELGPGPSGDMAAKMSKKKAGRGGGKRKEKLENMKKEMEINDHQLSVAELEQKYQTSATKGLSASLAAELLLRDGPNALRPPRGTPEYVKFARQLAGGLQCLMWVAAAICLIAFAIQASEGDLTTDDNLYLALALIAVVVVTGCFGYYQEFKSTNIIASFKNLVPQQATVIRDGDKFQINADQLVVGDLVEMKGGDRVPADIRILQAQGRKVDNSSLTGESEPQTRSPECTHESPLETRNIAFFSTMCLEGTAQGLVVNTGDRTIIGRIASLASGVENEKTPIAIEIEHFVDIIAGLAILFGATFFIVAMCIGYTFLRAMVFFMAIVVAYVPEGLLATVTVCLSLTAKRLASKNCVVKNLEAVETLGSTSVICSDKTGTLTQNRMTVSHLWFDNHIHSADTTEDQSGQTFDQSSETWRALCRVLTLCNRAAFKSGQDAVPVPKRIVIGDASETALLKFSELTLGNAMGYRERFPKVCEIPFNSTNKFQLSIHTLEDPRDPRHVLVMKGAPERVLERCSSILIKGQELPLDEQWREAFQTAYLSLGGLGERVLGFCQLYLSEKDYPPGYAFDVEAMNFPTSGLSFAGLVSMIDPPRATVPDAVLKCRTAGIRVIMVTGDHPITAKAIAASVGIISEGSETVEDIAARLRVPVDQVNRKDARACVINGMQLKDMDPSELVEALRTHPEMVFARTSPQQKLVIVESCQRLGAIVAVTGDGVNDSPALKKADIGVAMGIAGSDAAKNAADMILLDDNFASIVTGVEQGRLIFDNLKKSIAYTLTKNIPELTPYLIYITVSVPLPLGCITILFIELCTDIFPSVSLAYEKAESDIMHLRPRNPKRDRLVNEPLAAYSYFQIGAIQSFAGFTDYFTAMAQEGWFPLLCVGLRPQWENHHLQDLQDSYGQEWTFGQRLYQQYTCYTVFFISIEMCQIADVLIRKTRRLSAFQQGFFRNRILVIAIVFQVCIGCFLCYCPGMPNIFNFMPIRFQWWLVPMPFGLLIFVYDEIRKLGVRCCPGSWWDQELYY
T1 sequence (P18434 whole entry partner): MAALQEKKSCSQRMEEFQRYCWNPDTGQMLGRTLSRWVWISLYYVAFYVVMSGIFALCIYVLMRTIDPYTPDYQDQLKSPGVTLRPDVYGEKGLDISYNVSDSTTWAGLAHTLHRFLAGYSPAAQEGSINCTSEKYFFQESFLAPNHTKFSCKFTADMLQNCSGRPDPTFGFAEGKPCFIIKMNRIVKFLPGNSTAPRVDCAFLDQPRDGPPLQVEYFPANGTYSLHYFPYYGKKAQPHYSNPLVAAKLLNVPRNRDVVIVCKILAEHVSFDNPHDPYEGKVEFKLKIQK

`Cc1c(OCCOCc2ccccc2)ccnc1C[S+]([O-])c1nc2ccccc2[nH]1` (stereo not drawn) [Compound 1] had a half-inhibitory concentration (IC50) on H^+ -K^+ ATPase of 920 nM.

The compound `COc1ccc2[nH]c([S+]([O-])Cc3nccc(OCCOCc4ccccc4)c3C)nc2c1` (stereo not drawn) [Compound 2] came in with a 50% inhibitory concentration (IC50) against H^+ -K^+ ATPase of 1400 nM.

For `Cc1c(OCCOCc2ccccc2)ccnc1C[S+]([O-])c1nc2cc(C(F)(F)F)ccc2[nH]1` (stereo not drawn) [Compound 3], the 50% inhibitory concentration (IC50) on H^+ -K^+ ATPase was determined as 1000 nM.

`Cc1c(OCCN2C(=O)CCC2=O)ccnc1C[S+]([O-])c1nc2ccccc2[nH]1` (stereo not drawn) [Compound 4] yielded an IC50 against H^+ -K^+ ATPase of 11000 nM.

With `Cc1c(OCCN2CCCC2=O)ccnc1C[S+]([O-])c1nc2ccccc2[nH]1` (stereo not drawn) [Compound 5], on H^+ -K^+ ATPase, the midpoint of inhibition, the IC50, lay at 2400 nM.

`COCCOCCOc1ccnc(C[S+]([O-])c2nc3cc(C(F)(F)F)ccc3[nH]2)c1C` (stereo not drawn) [Compound 6] yielded an IC50 against H^+ -K^+ ATPase of 550 nM.

On H^+ -K^+ ATPase, `COCCOCCOc1ccnc(C[S+]([O-])c2nc3cc(OC)ccc3[nH]2)c1C` (stereo not drawn) [Compound 7] had an IC50 of 1700 nM. This IC50 lies about 3.1-fold higher than the previous one.

Turning to `Cc1c(OCCOCc2ccccn2)ccnc1C[S+]([O-])c1nc2ccccc2[nH]1` (stereo not drawn) [Compound 8], on H^+ -K^+ ATPase, the IC50 came out at 1200 nM.

As for `COc1ccc2[nH]c([S+]([O-])Cc3nccc(OCCN4CCCC4=O)c3C)nc2c1` (stereo not drawn) [Compound 9], the IC50 at H^+ -K^+ ATPase came to 13000 nM.

With `Cc1c(OCCO)ccnc1C[S+]([O-])c1nc2ccccc2[nH]1` (stereo not drawn) [Compound 10], the IC50 against H^+ -K^+ ATPase came to 1900 nM.

`COc1ccc2[nH]c([S+]([O-])Cc3nccc(OCCOCCOCc4ccccc4)c3C)nc2c1` (stereo not drawn) [Compound 11] showed an IC50 at H^+ -K^+ ATPase of 4200 nM.

Consider `Cc1c(OCCOCCOCc2ccccc2)ccnc1C[S+]([O-])c1nc2ccccc2[nH]1` (stereo not drawn) [Compound 12], for which the IC50 against H^+ -K^+ ATPase worked out at 2600 nM.

At H^+ -K^+ ATPase, `Cc1c(OCCOCCOCc2ccccc2)ccnc1C[S+]([O-])c1nc2cc(C(F)(F)F)ccc2[nH]1` (stereo not drawn) [Compound 13] displayed an IC50 of 630 nM.

As to `COc1ccc2[nH]c([S+]([O-])Cc3nccc(OCCN4C(=O)CCC4=O)c3C)nc2c1` (stereo not drawn) [Compound 14], on H^+ -K^+ ATPase, the 50% inhibitory concentration (IC50) stood at 10000 nM. Against the preceding compound, the IC50 is about 16-fold higher.

Take `Cc1c(OCCN2C(=O)CCC2=O)ccnc1C[S+]([O-])c1nc2cc(C(F)(F)F)ccc2[nH]1` (stereo not drawn) [Compound 15]: at H^+ -K^+ ATPase, the IC50 is 72 nM.

On to `Cc1c(OCCN2CCCC2=O)ccnc1C[S+]([O-])c1nc2cc(C(F)(F)F)ccc2[nH]1` (stereo not drawn) [Compound 16], for which, on H^+ -K^+ ATPase, the midpoint of inhibition, the IC50, lay at 1700 nM. This IC50 is about 24-fold higher than that of the compound before.

Take `COc1ccc2[nH]c([S+]([O-])Cc3nccc(OCCO)c3C)nc2c1` (stereo not drawn) [Compound 17]: on H^+ -K^+ ATPase, the half-inhibitory concentration (IC50) was 3500 nM. This IC50 lies about 2.1-fold higher than the previous one.

As for `COCCOCCOc1ccnc(C[S+]([O-])c2nc3ccccc3[nH]2)c1C` (stereo not drawn) [Compound 18], inhibition at H^+ -K^+ ATPase was half-maximal at 3300 nM (IC50).

Consider `COCCCOc1ccnc(C[S+]([O-])c2nc3ccccc3[nH]2)c1C` (stereo not drawn) [Compound 19, Sodium Salt of 2-[{4-(3-Methoxypropoxy)-3-Methylpyridine-2-Yl}Methylsulfinyl]-1H-Benzimidazole], for which the Toxicological influence entry in data set [1] and in data set [2] was “No toxicological influence has been observed” throughout. The “Inhibitory effect on the activity of H^+ -K^+ ATPase (in words)” value at H^+ -K^+ ATPase was “significant inhibitory effect”. This compound registered a half-maximal inhibitory concentration (IC50) against H^+ -K^+ ATPase of 1700 nM. Also, the “% Inhibition of acid output” value is 34.4% in data set [3] (31.25 μg/Kg intraduodenal); 50.1% in data set [3] (62.5 μg/Kg intraduodenal); 67.7% in data set [3] (125 μg/Kg intraduodenal); 87.4% in data set [3] (250 μg/Kg intraduodenal); 100.0% in data set [3] (500 μg/Kg intraduodenal). The ED50 in data set [3] was 0.0599 mg/kg. In addition, the “Potency compared with Omeprazole, inhibition of gastric acid secretion” value in data set [3] (versus Omeprazole) is listed as “two times more potent; also recorded: more potent inhibitory activity on gastric acid secretion as compared with Omeprazole”. In addition, the “Time required for the acid secretion to recover” value in data set [4] (pentagastrin) was 48 h. Also, the “Gastric acid secretion, percent of the control response, 1 hr” value in data set [4] (pentagastrin) is reported as 0%. The “Gastric acid secretion, percent of the control response, 24 hr” value in data set [4] (pentagastrin) came to 61.9%. Further, the “Gastric acid secretion, percent of the control response, 48 hr” value in data set [4] (pentagastrin) came out at 121.5%. In data set [4] (dog, in vivo), the “Recovery of gastric acid secretion (in words)” value is “excellent gastric acid secretion recovery”. The “Inhibition of pentagastrin-stimulated gastric acid secretion (in words)” value in data set [4] is recorded as “completely inhibited”.

As to `CSCCOc1ccnc(C[S+]([O-])c2nc3ccccc3[nH]2)c1C` (stereo not drawn) [Compound 20], at H^+ -K^+ ATPase, the IC50 turned out to be 2300 nM.

`Cc1c(OCCOc2ccccc2)ccnc1C[S+]([O-])c1nc2ccccc2[nH]1` (stereo not drawn) [Compound 21]: the concentration for half-maximal inhibition (IC50) at H^+ -K^+ ATPase stood at 1300 nM.

With `Cc1c(OCCCO)ccnc1C[S+]([O-])c1nc2ccccc2[nH]1` (stereo not drawn) [Compound 22], at H^+ -K^+ ATPase, the IC50 amounted to 1900 nM. The IC50 values of the last two compounds are within 1.5-fold of each other.

Consider `Cc1c(OCCOCCCl)ccnc1C[S+]([O-])c1nc2ccccc2[nH]1` (stereo not drawn) [Compound 23], for which the IC50 against H^+ -K^+ ATPase came out at 1400 nM.

For the compound `COc1ccc2[nH]c([S+]([O-])Cc3ncc(C)c(OC)c3C)nc2c1` (stereo not drawn) [Omeprazole, reference compound], the “% Inhibition of acid output” value in data set [3] (62.5 μg/Kg intraduodenal) is on record as 41.1%; in data set [3] (125 μg/Kg intraduodenal), 48.6%; in data set [3] (250 μg/Kg intraduodenal), 62.1%; in data set [3] (500 μg/Kg intraduodenal), 91.2%; in data set [3] (1000 μg/Kg intraduodenal), 100.0%. In addition, the ED50 in data set [3] was 0.112 mg/kg. Also, the “Time required for the acid secretion to recover” value in data set [4] (pentagastrin) was found to be 72 h. Moreover, in data set [4] (pentagastrin), the “Gastric acid secretion, percent of the control response, 1 hr” value came to 0.3%. Besides, the “Gastric acid secretion, percent of the control response, 24 hr” value in data set [4] (pentagastrin) amounted to 32.3%. Further, the “Gastric acid secretion, percent of the control response, 48 hr” value in data set [4] (pentagastrin) was found to be 69.1%. The “Gastric acid secretion, percent of the control response, 72 hr” value in data set [4] (72 hr after 4 mg per kg intraduodenal, pentagastrin) is on record as 108.4%. Moreover, the “Inhibition of pentagastrin-stimulated gastric acid secretion (in words)” value in data set [4] is given as “completely inhibited”.
